This assay has as its system reference seasonal A(H3N2) viruses A/Louisiana/50/2017 and A/Louisiana/49/2017. Description: microbe, parasite or virus in culture. It is filed as cell-based, influenza A virus. Particulars: read-out: Mean EC50 + SD.

pEC50: −log10 of the molar value.

For the compound `O=C1c2c(O)c(=O)ccn2N([C@@H]2c3ccccc3SCc3c2ccc(F)c3F)[C@@H]2COCCN12` [baloxavir, baloxavir acid], the pEC50 (as a rule, the EC50 on a negative log10 scale, so that one unit is a factor of ten) is 7.85.
